Reference: PubChem BioAssay (NCI)
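Results reflect a 48-hour exposure of cells in 96-well plates to compound at five concentrations. The concentration for 50% growth inhibition is given as GI50. TGI: total growth inhibition.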

Experiments:
Assay in all cases: DTP human tumour cell line panel, 48 h
[1] = tested on: PC-3 prostate
[2] = tested on: MOLT-4 leukemia
[3] = tested on: U251 CNS
[4] = tested on: A549 NSCLC
[5] = tested on: HCT-15 colon
[6] = tested on: UACC-257 melanoma
[7] = tested on: HL-60(TB) leukemia
[8] = tested on: A498 renal
[9] = tested on: OVCAR-5 ovarian
[10] = tested on: SK-OV-3 ovarian

Row | SMILES | GI50 [1] [µM] | TGI [1] [µM] | GI50 [2] [µM] | TGI [2] [µM] | GI50 [3] [µM] | TGI [3] [µM] | GI50 [4] [µM] | TGI [4] [µM] | GI50 [5] [µM] | TGI [5] [µM] | GI50 [6] [µM] | TGI [6] [µM] | GI50 [7] [µM] | TGI [7] [µM] | GI50 [8] [µM] | TGI [8] [µM] | GI50 [9] [µM] | TGI [9] [µM] | TGI [10] [µM] | GI50 [10] [µM]
1 | O=C1c2cccnc2-c2nc(-c3ccc(Cl)cc3)cc3c2c1nc1ccccc13 | 47 | > 100 | 51.7 | > 100 | 9.24 | 37.1 | 35.6 | > 100 | 23.9 | > 100 | 57.7 | > 100 | 37.6 | > 100 | 33.5 | > 100 | > 100 | > 100 | – | –
2 | CC1=CC(C)(C)N=C2SC(c3ccc(N)cc3)=NN12 | – | – | – | > 100 | – | > 100 | – | > 100 | – | > 58.7 | – | > 100 | – | > 53 | – | > 100 | – | > 100 | > 100 | –
3 | O=C(Nc1cc(Cl)c(Cl)cc1Cl)C(=O)C1C(=O)NC(=S)NC1=O | – | – | – | > 100 | – | > 100 | – | > 100 | – | > 100 | – | > 100 | – | > 100 | – | > 100 | – | > 100 | > 100 | –
4 | CCOC(=O)/C(C)=C(/O)C(=O)OCC | – | – | – | > 100 | – | > 100 | – | > 100 | – | > 100 | – | > 100 | – | > 100 | – | > 100 | – | > 100 | > 100 | –
5 | O=C(CCc1nc(=S)[nH][nH]1)Nc1ccccc1Cl | – | – | – | > 100 | – | > 100 | – | > 100 | – | 41.3 | – | > 100 | – | > 100 | – | > 100 | – | > 100 | > 100 | –
6 | COc1ccc(-c2nc3ccccn3c2/C=C/C(=O)c2cc(OC)c(OC)c(OC)c2)cc1OC | 3.71 | > 100 | – | – | 2.91 | 65.5 | 3.86 | 30.7 | 3.73 | 35.1 | 3.24 | 15.4 | 2.53 | 6.12 | 2.93 | 17.8 | 7.38 | 53.3 | > 100 | 4.92
7 | CC1=[N+]([O-])c2ccccc2C(=O)C1=O | – | – | – | > 100 | – | > 100 | – | > 100 | – | > 100 | – | > 100 | – | > 100 | – | > 100 | – | > 100 | > 100 | –
8 | O=C1C2C3C=C4c5ccccc5N(c5ccccc5)C4(C2C(=O)N1c1ccc([N+](=O)[O-])cc1)[C@H]1C(=O)N(c2ccc([N+](=O)[O-])cc2)C(=O)[C@@H]31 (stereo partly specified) | – | – | – | > 100 | – | > 100 | – | > 100 | – | > 100 | – | > 100 | – | > 100 | – | > 100 | – | > 100 | > 100 | –
9 | COc1cc2c3c(n(CCCN)c(=O)c2cc1OC)-c1ccc(C#N)cc1C3=O | 15 | 36.5 | 0.748 | 3.49 | 13 | 28.4 | 5.53 | 22.1 | 15.4 | 30.6 | 28.5 | > 100 | – | – | – | – | 18 | 33.2 | 28 | 12.7
10 | c1ccc(C2N3CCCCC3[C@@H]3c4[nH]c5ccccc5c4CCN23)nc1 (stereo partly specified) | – | – | – | > 100 | – | > 100 | – | > 100 | – | > 100 | – | > 100 | – | > 100 | – | > 100 | – | > 100 | > 100 | –
11 | CCOC(=O)C1SC(=Nc2ccc(C)c(C)c2)N=C1C (stereo unspecified) | – | – | – | > 100 | – | > 100 | – | > 100 | – | > 100 | – | > 100 | – | > 100 | – | > 100 | – | > 100 | > 100 | –
12 | Cc1cc(N(CCC#N)CCC#N)ccc1/C=C(\NC(=O)/C=C/c1ccccc1)C(N)=O | – | – | – | > 100 | – | > 100 | – | > 100 | – | > 100 | – | > 100 | – | > 100 | – | > 100 | – | > 100 | > 100 | –
13 | C=C(C)[C@@H]1CC[C@]2(CO)CC[C@]3(C)[C@H](CC[C@@H]4[C@@]5(C)C=C(C#N)C(=O)C(C)(C)[C@@H]5CC[C@]43C)[C@@H]12 | 1.57 | 5.42 | – | – | 1.36 | 2.8 | 1.56 | 3.5 | – | – | 1.29 | 3.04 | 0.471 | 5.5 | 1.37 | 2.99 | 2.13 | 5.75 | 6.12 | 2.72
14 | CCOC(=O)CCC(=O)C1c2cccc(O)c2C(=O)c2c(O)cc(C)cc21 (stereo unspecified) | – | – | – | 6.76 | – | 0.65 | – | 3.86 | – | 2.25 | – | 2.8 | – | 1.8 | – | 4.75 | – | 1.67 | 2.01 | –
15 | COc1cc2c(cc1OCCCCC(=O)Nc1cc3c4ccccc4ccc3c3ccccc13)N=C[C@@H]1CCCN1C2=O | 5.4 | > 65.9 | 4.62 | > 100 | 8.02 | > 100 | 27.1 | 61.3 | 12.5 | > 52.6 | 7.77 | 18.4 | – | – | 2.9 | 9.38 | 11.5 | 52.8 | > 100 | 34.3
16 | OCC1OC(n2cnc3c2NC=NC[C@H]3O)C(Cl)C1O (stereo partly specified) | – | > 100 | – | > 100 | – | > 100 | – | > 100 | – | > 100 | – | > 100 | – | > 100 | – | > 100 | – | > 100 | – | –
17 | COc1c(C(=O)/C=C/c2ccccc2)c(O)cc2occc12 | 7.01 | 37.9 | 3.36 | > 100 | 4.39 | 16.1 | 8.62 | 29 | 5.25 | 22.7 | 7.01 | 19.7 | – | – | 7.97 | 21.8 | 5.67 | 19.8 | 36.4 | 14.1
18 | CC12OC(C(=O)C13CC3)C1C(=O)c3ccc4c(ccc5ccccc54)c3C(=O)C12 (stereo unspecified) | 19 | 80.7 | 28.9 | > 100 | – | – | 45 | > 100 | – | – | 33.5 | > 100 | 33.2 | > 100 | – | – | 30.1 | > 100 | > 100 | 76.4
19 | CCOC(=O)N[C@@H]1C(CC(=O)OC)O[C@H]2OC(C)(C)O[C@H]21 (stereo partly specified) | – | – | – | > 100 | – | > 100 | – | > 100 | – | > 100 | – | > 100 | – | > 100 | – | > 100 | – | > 100 | > 100 | –
